Assay results published in patent US8071613B2, “Anti-constipation composition” (Sucampo AG, priority 2000, dated 2011).

Key:
[1] = tested on: intraintestinal content; assay: Enteropooling test; assay type: in vivo; conditions: dose that raises the intraintestinal content by 50%
Excerpt: The enteropooling test employed in the present invention is intended to investigate mainly on the action (ii) and/or (iii), which assesses the effect of the drug on the intraintestinal water pool by measuring the volume of the intraintestinal content. The bi-cyclic-halogenated compounds of the present invention may show extremely great enteropooling effect. However, they hardly or slightly cause contraction of intestines which is one of indexes for assessment of the action (iv). Accordingly, the bi-cyclic-halogenated compounds of the present invention are considered to alleviate constipation by mainly acting on intestinal mucosa directly or indirectly to affect transfer of electrolytes and water from intestinal walls into blood vessels and/or from blood vessels into intestines, resulting in reduced water absorption and/or in increased water secretion through the intestines, increased intraintestinal water pool and promoted transfer of the intraintestinal content. Enteropooling tests and diarrhea tests were conducted. The dose that raise the intraintestinal content by 50% was referred to as ED50. [drawing 31] […]

[2] = Ratio of mono-cyclic/bi-cyclic structure by NMR measurement; assay type: physicochemical; conditions: NMR measurement in CDCl3 solution
Excerpt: It has been discovered that in the absence of water, compounds represented by Formula (I) exist predominantly in the form of the bi-cyclic compound. In aqueous media, it is believed that hydrogen bonding occurs between, for example, the ketone position at the C-15 position, thereby hindering bi-cyclic ring formation. In addition, it is believed that the halogen atom(s) at the C-16 position promote bi-cyclic ring formation. The mono-cyclic/bi-cyclic structures, for example, may be present in a ratio of 1:6 in D2O; 1:10 in CD3OD-D2O and 4:96 in CDCl3. Accordingly, a preferable embodiment of the present invention is the composition in which the bi-cyclic form is present in ratio of bi -cyclic/mono-cyclic of least 1:1, and preferably 20:1, or even greater to substantially all bi-cyclic compound; 100% bi-cyclic compound is within this invention.
The biological activity of compositions due to the ratios of mono-cyclic/bi-cyclic structures when Z of general formula (I) is an oxygen atom, and a ketone is present at the C-9 position of the present invention can be seen from the following examples.

[3] = Storage stability at 40° C. dissolved in medium chain fatty acid triglyceride (MCT), content by HPLC; assay type: physicochemical; conditions: for content of compound, initial / content of compound, 14 days: in MCT (compound 1 0.36 mg/g; compound 2 0.12 mg/g); for content of compound, initial: 40° C.; for content of compound, 14 days: in % (unit assumed)
Method: The following compounds 1 and 2 were dissolved in a medium chain fatty acid triglyceride (MCT=mixture of caprylic acid triglyceride and capric acid triglyceride in a ratio of 85:15) in an amount shown in the table below.
(§1) Each of the solutions was placed in a container made of hard glass and stored at 40° C. The time-course content of compound 1 and 2 in the solutions were determined by HPLC method. At the same time, each of compounds 1 and 2 was placed solely (without being dissolved in the solvent) in the container as above, and stored at 40° C. to provide control study.
(2) In the presence of the solvent, the content of the compound was determined as follows by HPLC method.
Based on the value expressed in the above table, an amount of the solution corresponding to 36 μg of compounds 1 and 2 was weighed precisely. Precisely 1.0 mL of an internal standard solution was added, and then ethyl acetate, (liquid chromatograph grade) was added to give a total amount of 10 mL each. Each 0.1 mL of the solution was vacuum concentrated to dryness to give the test preparation.
Each 18 mg of the standard compounds was weighed precisely and admixed with ethyl acetate (liquid chromatograph grade) to give the total amount of exactly 50 mL each. 1.0 mL of the solution and 10.0 mL of the internal standard solution were measured precisely and admixed with ethyl acetate (liquid chromatograph grade) to give a total of 100 mL each. Each 0.1 mL of the solution was vacuum concentrated to dryness to give the standard preparation.
To the test and standard preparations, 0.1 mL of fluorescent labeling reagent and 0.85 mL of fluorescent labeling catalyst were added, respectively, and the mixture was stirred and reacted at room temperature for more than 30 minutes. 0.05 mL aliquots of acetonitrile (liquid chromatograph grade) containing 2% acetic acid were added to the reaction mixtures, respectively, stirred, and then allowed to stand for more than 30 minutes to provide test and standard solutions.
Each 10 μL of the test and standard solution was loaded on liquid chromatograph and determined the content of the respective compounds by internal standard method with one point calibration curve.
(§2) WX: The amount of the compound in the standard preparation (mg)
(§3) QS: Peak area ratio of the compound in the standard preparation to the internal standard.
(§4) QT: Peak area ratio of the compound in the test preparation to the internal standard.
Detector: Fluorescent spectrometer (excitation wavelength 259 nm; fluorescent wavelength 394 nm)
(§5) Column: A stainless tube having about 5 mm of internal diameter and about 25 cm of length, packed with 5 μm octadecylsilyl silica gel for liquid chromatograph
Column temperature: Stable at around 35° C.
Mobile phase: Mixed solution of acetonitrile (liquid chromatograph grade)/methanol (liquid chromatograph grade)/aqueous ammonium acetate (0.05 mol/L) (4:11:5)

[4] = Storage stability at 40° C. without solvent (crystal), content by HPLC; assay type: physicochemical; conditions: crystal (no solvent); for content of compound, initial: hard glass container, 40° C.
Method: as §1
(1) In the absence of the solvent, the content of the compounds was determined as follows by the HPLC method.
Stored compounds 1 and 2, and standard compounds 1 and 2 were weighed precisely around 0.025 g each, and exactly 5 mL aliquots of internal standard solution were added to the respectively weighed compounds. Test and standard preparations were obtained by adding acetonitrile (liquid chromatograph grade) to give the precise total amount of 10 mL each. Each 10 μL of the test and standard preparations were loaded on liquid chromatograph and determined the content of the compound by internal standard method with one point calibration curve.
as §2
WT: The amount of compound 1 and 2 in the test preparation.
as §3, §4
Detector: Ultraviolet absorption spectrophotometer (wavelength 294 nm)
as §5
Column temperature: Stable around 35° C.
Mobile phase: Mixed solution of acetonitrile (liquid chromatograph grade)/aqueous sodium acetate (0.01 mol/L)/glacial acetic acid (800:200:1)

[5] = tested on: healthy male volunteers; assay: Bowel movement after single oral administration to healthy male volunteers; assay type: in vivo, human
Method: Effect of the Present Invention Dissolved in Medium Chain Fatty Acid Triglyceride on Bowel Movement After Single Oral Administration to Healthy Male Volunteers
3 to 9 healthy male volunteers were treated with a composition containing the following mono-cyclic/bi-cyclic structures (in CDCl3) in a ratio of 4:96.
The test substance (R1 and R2 are F atoms) was dissolved in Panacet 800 (medium chain fatty acid triglyceride manufactured by Nippon Oil & Fat co., Ltd., Amagasaki, Japan) and filled in a capsule (each capsule contains […] of the mixture). Each subject was administered one capsule with 100 mL of water.

[6] = 5 μg single oral capsule in Panacet 800
[7] = 10 μg single oral capsule in Panacet 800
[8] = 20 μg single oral capsule in Panacet 800
[9] = 30 μg single oral capsule in Panacet 800

In the case of `CCCCCC(=O)CCC1C(O)CC(=O)C1CCCCCCC(=O)O` (stereo not shown) [Comparative Example A, reference compound], the “Enteropooling activity, ED50” value [1] is reported as 320 µg/kg and the “Ratio of mono-cyclic/bi-cyclic structure” value [2] is reported as “No signal”.

In the case of `CCCCCC(=O)CCC1C(O)CC(=O)C1CC=CCCCC(=O)OC` (stereo not shown) [Comparative Example C, reference compound], the “Enteropooling activity, ED50” value [1] is reported as 220 µg/kg.

In the case of `CCCCC(F)(F)C1(O)CCC2C(CC(=O)C2CCCCCCC(=O)O)O1` (stereo not shown) [Example A], the “Enteropooling activity, ED50” value [1] is reported as 0.6 µg/kg.

For `CCCCC(F)C(=O)CCC1C(O)CC(=O)C1CCCCCCC(=O)O` (stereo not shown) [Example B], the “Enteropooling activity, ED50” value [1] was 2 µg/kg.

For `CCCCC(F)(F)C1(O)CCC2C(CC(=O)C2CC=CCCCC(=O)OC)O1` (stereo not shown) [Example C], the “Enteropooling activity, ED50” value [1] was 0.3 µg/kg.

In the case of `CCCCC(F)C(=O)CCC1C(O)CC(=O)C1CC=CCCCC(=O)OC` (stereo not shown) [Example D], the “Enteropooling activity, ED50” value [1] is reported as 3 µg/kg.

In the case of `CCCCC(F)(F)C1(O)CC[C@@H]2C(CCCCCCC(=O)O)C(=O)C[C@H]2O1` (stereo partly shown) [compound 1], the “content of compound, 38 days” value ([3]; in MCT (compound 1 0.36 mg/g), stored at 40° C., 38 days) is reported as 102.1, the “content of compound, 90 days” value ([3]; in MCT (compound 1 0.36 mg/g), stored at 40° C., 90 days) is reported as 100.9 and the content of compound, initial [3] is reported as 100%. The “content of compound, 14 days” value ([3]; stored at 40° C.) was 101.4, the content of compound, initial [4] was 100% and the “content of compound, 7 days” value ([4]; stored at 40° C., 7 days) was 97.2. It also gave a content of compound, 14 days ([4]; stored at 40° C.) of 94.1% and a content of compound, 28 days ([4]; stored at 40° C.) of 87.4%.

In the case of `CC[C@H](C)CC(F)(F)C1(O)CC[C@@H]2C(CCCCCCC(=O)O)C(=O)C[C@H]2O1` (stereo partly shown) [compound 2], the content of compound, initial [3] is reported as 100%, the “content of compound, 14 days” value ([3]; stored at 40° C.) is reported as 99.6 and the content of compound, 28 days ([3]; in MCT (compound 2 0.12 mg/g), stored at 40° C., 28 days) is reported as 98.9%. It also gave a content of compound, 191 days ([3]; in MCT (compound 2 0.12 mg/g), stored at 40° C., 191 days) of 99.6%, a content of compound, initial [4] of 100% and a content of compound, 6 days ([4]; stored at 40° C., 6 days) of 84.5%. It also gave a content of compound, 14 days ([4]; stored at 40° C.) of 75% and a content of compound, 28 days ([4]; stored at 40° C.) of 53.4%.

With `CCCCC(F)(F)C1(O)CCC2C(CC(=O)C2CCCCCCC(=O)O)O1` (stereo not shown) [test substance] the “Number of Subjects Loose or Diarrhea” value [5, 6] was 2/3, the “Number of Subjects Normal” value [5, 6] was 1/3 and the “Number of Subjects Loose or Diarrhea” value [5, 7] was 2/7. The “Number of Subjects Normal” value [5, 7] was 5/7, the “Number of Subjects Loose or Diarrhea” value [5, 8] was 2/3 and the “Number of Subjects Normal” value [5, 8] was 1/3. The “Number of Subjects Loose or Diarrhea” value [5, 9] was 7/9 and the “Number of Subjects Normal” value [5, 9] was 2/9.
